{"source": "patent US20070219190A1", "about": "“Heterocyclic NF-kB Inhibitors” (4SC AG, priority 2006, published 2007)"}
{"system": "A549-NF-κB-SEAP reporter cells", "experiment": "NF-κB inflammation assay (PRINCESS NINA Instant Assay, SEAP reporter)", "type": "cell-based", "settings": "stimulation with 2 ng/ml TNF-α; test concentration for the class not stated", "description": "Inhibition of NF-κB-Induced Inflammation:\nFor the determination of anti-inflammatory activity of the compounds the PRINCESS® NINA Instant Assay from Cell Culture Service GmbH was used. This assay is based on recombinant A549-NF-κB-SEAP reporter cells preseeded in 96-well flat bottom plates. As the transfected reporter gene for SEAP (secreted embryonic alkaline phosphatase) is under transcriptional control of a NF-κB-responsive element, the expression of this reporter is activated upon stimulation with TNF-α. SEAP secretion into the culture supernatant can be detected by the chemiluminescent substrate CSPD®. Test compounds that inhibit the NF-κB activation show reduced SEAP activity and reduced luminescent readout.\nFollowing 18 h of reactivation at 37° C., 5% CO2 and 90% relative humidity, the cells were incubated with 0.01 up to 100 μM of test compound for 4.5 h before stimulation with 2 ng/ml TNF-α. After stimulation with TNF-α for 22 h endogenous phosphatases were inactivated and CSPD® substrate was supplied for 40 min. SEAP activity then was quantified by measuring luminescence as relative light units (RLU) using a Tecan Ultra reader. Each data point was recorded in quadruplicates and EC50 values were calculated via fitting function and the Microsoft Excel Solver."}
{"smiles": "N#Cc1ccc(CN2CCC(c3nc(C(=O)N4CCC(n5nnc6cc(C(F)(F)F)ccc65)CC4)cs3)CC2)cc1", "note": "[Cp. 1, 4-(4-{4-[4-(5-Trifluoromethyl-benzotriazol-1-yl)-piperidine-1-carbonyl]-thiazol-2-yl}-piperidin-1-yl-methyl)-benzonitrile]", "Biological activity (NF-κB inflammation assay, inhibition)": "++ (“++” means 80-90%)"}
{"smiles": "N#Cc1ccc(CN2CCC(c3nc(C(=O)N4CCN(c5nsc6ccccc56)CC4)cs3)CC2)cc1", "note": "[Cp. 2, 4-{4-[4-(4-Benzo[d]isothiazol-3-yl-piperazine-1-carbonyl)-thiazol-2-yl]-piperidin-1-ylmethyl}-benzonitrile]", "Biological activity (NF-κB inflammation assay, inhibition)": "++ (“++” means 80-90%)"}
{"smiles": "N#Cc1ccc(CN2CCC(c3nc(C(=O)N4CCC(n5cnc6ccccc65)CC4)cs3)CC2)cc1", "note": "[Cp. 3, 4-{4-[4-(4-Benzoimidazol-1-yl-piperidine-1-carbonyl)-thiazol-2-yl]-piperidin-1-ylmethyl}-benzonitrile]", "Biological activity (NF-κB inflammation assay, inhibition)": "++ (“++” means 80-90%)"}
{"smiles": "COc1nc(OC)nc(N2CCC(c3nc(C(=O)N4CCN(c5nsc6ccccc56)CC4)cs3)CC2)n1", "note": "[Cp. 5, (4-Benzo[d]isothiazol-3-yl-piperazin-1-yl)-{2-[1-(4,6-dimethoxy-[1,3,5]triazin-2-yl)-piperidin-4-yl]-thiazol-4-yl}-methanone]", "Biological activity (NF-κB inflammation assay, inhibition)": "++ (“++” means 80-90%)"}
{"smiles": "COc1nc(OC)nc(N2CCC(c3nc(C(=O)N4CCC(n5cnc6ccccc65)CC4)cs3)CC2)n1", "note": "[Cp. 6, (4-Benzoimidazol-1-yl-piperidin-1-yl)-{2-[1-(4,6-dimethoxy-[1,3,5]triazin-2-yl)-piperidin-4-yl]-thiazol-4-yl}-methanone]", "Biological activity (NF-κB inflammation assay, inhibition)": "++ (“++” means 80-90%)"}
{"smiles": "COc1cc(N2CCC(c3nc(C(=O)N4CCN(c5nsc6ccccc56)CC4)cs3)CC2)nc(OC)n1", "note": "[Cp. 7, (4-Benzo[d]isothiazol-3-yl-piperazin-1-yl)-{2-[1-(2,6-dimethoxy-pyrimidin-4-yl)-piperidin-4-yl]-thiazol-4-yl}-methanone]", "Biological activity (NF-κB inflammation assay, inhibition)": "++ (“++” means 80-90%)"}
{"smiles": "O=C(c1csc(C2CCN(c3ncnc4ccsc34)CC2)n1)N1CCN(c2nsc3ccccc23)CC1", "note": "[Cp. 8, (4-Benzo[d]isothiazol-3-yl-piperazin-1-yl)-[2-(1-thieno[3,2-d]pyrimidin-4-yl-piperidin-4-yl)-thiazol-4-yl]-methanone]", "Biological activity (NF-κB inflammation assay, inhibition)": "+++ (“+++” stands for 90-100% inhibition)"}
